We go through one compound from patent publication US10669287B2, “Curcumin-boron complex and pharmaceutical containing same” (JAPAN SCIENCE AND TECHNOLOGY AGENCY, priority 2016, dated 2020).

Series [1] is described as follows: Maximum wavelength λmax of photocatalysts. Format: physicochemical. The note with it: Table 2.
Series [2] in a line: Conversion of N-benzoyl-Met under different glycerol concentrations, Test Example 8. The note with it: compound 2 μM, N-benzoyl-Met 2 mM, glycerol-methanol 0, 10, 30, or 50% glycerol, 780 nm, room temperature. As for the experimental part: To a glycerol-methanol mixed solvent (glycerol: 0, 10, 30, or 50%), furfuryl alcohol or N-benzoyl-Met (2 mM in each case) and the compound E (2 μM) were added, and the mixture was subjected to light irradiation (wavelength: 780 nm) at room temperature, and the concentration of furfuryl alcohol or N-benzoyl-Met was quantified by using a UV absorptiometer with LC/MS 10 minutes, 20 minutes, and 30 minutes after the initiation of light irradiation.

The target of another series is T1, Aβ1-42 (Homo sapiens, UniProt P05067).
T1 construct: phosphate buffer (pH 7.4)/cell culture solution (containing 0.1% horse serum) (1:3) containing Aβ1-42 (10 μM)
T1 sequence (P05067 672-713): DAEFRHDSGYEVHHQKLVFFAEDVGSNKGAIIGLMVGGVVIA
The series is described as follows: Oxygenation under mouse skin, Test Example 7. Format: in vivo. The settings on record: microtube with Aβ1-42 20 μM aggregated 3 hours, implanted in back skin, LED 780 nm, 30 minutes. How it is done: A microtube containing a phosphate buffer containing Aβ1-42 (20 μM, aggregated in advance for 3 hours) and the compound E or a compound 3 [9-(6-bromo-3-methyl-1,3-benzotriazol-3-ium-2-yl)-julolidine] was implanted in the back skin of a wild mouse, and light irradiation with an LED lamp was performed from the outside of the mouse body at a wavelength of 780 nm for 30 minutes (FIG. 10). As a control experiment, another microtube containing the same components (Aβ1-42 (20 μM, aggregated in advance for 3 hours) and the compound E or the compound 3) was directly subjected to light irradiation outside of the mouse body. The reaction mixture was analyzed by using a MALDI-TOF MS, and then subjected to ZipTip treatment for analysis. The percentage of oxygenation ratio was calculated from the percentage of oxygenation ratio under the skin and the oxygenation ratio outside of the skin “[oxygenation ratio under mouse skin/oxygenation ratio outside of mouse skin]×100”.

`O=C(O)CCCCCN1CCCc2cc(/C=C/C3=[O+][B-](F)(C(F)(F)C(F)(F)F)OC(/C=C/c4cc5c6c(c4)CCCN6CCC5)=C3Br)ccc21` (stereo not drawn) [Compound E]: in series [1], the “Maximum wavelength λmax (nm)” value is reported as 639 nm. The “oxygenation of N-benzoyl-Met” value in series [2] is given as “accelerated as the viscosity of the solvent was higher”. Moreover, the “percentage of oxygenation ratios [oxygenation ratio under mouse skin/oxygenation ratio outside of mouse skin]×100” value on Aβ1-42 was determined as 65%.
